The source made the active and inactive calls. The calls are words filed in the database; no cut-off is given here.
Legend:
Format in all cases: functional, cell-based
[1] = biological target: T1, Taste receptor type 2 member 14 (Homo sapiens) (UniProt Q9NYV8); test: Agonist activity at recombinant human N-terminal rat ST3 receptor-fused TAS2R14 expressed in HEK293T cells co-expressing Galpha16gust44 assessed as increase in intracellular calcium level at 100 uM by FLIPR assay
T1 sequence (whole entry): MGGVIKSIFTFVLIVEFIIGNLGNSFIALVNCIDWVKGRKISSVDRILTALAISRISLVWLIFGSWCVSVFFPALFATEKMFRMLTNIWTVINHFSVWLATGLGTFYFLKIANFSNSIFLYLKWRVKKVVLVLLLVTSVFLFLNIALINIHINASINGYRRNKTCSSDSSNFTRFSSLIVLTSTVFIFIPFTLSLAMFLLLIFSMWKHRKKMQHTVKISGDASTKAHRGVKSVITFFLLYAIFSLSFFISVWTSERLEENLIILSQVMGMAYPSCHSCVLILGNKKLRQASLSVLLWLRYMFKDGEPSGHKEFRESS

[2] = biological target: T2, Taste receptor type 2 member 13 (Homo sapiens) (UniProt Q9NYV9); test: Agonist activity at recombinant human N-terminal rat ST3 receptor-fused TAS2R13 expressed in HEK293T cells co-expressing Galpha16gust44 assessed as increase in intracellular calcium level at 100 uM by FLIPR assay
T2 sequence (whole entry): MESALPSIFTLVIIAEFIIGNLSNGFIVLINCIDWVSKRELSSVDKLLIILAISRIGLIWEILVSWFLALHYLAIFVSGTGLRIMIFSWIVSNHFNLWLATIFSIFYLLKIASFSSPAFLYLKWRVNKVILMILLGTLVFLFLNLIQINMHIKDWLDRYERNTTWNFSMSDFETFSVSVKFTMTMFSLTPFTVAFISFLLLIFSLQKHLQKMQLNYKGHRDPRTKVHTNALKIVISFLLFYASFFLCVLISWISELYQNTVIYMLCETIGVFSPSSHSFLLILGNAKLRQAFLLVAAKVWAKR

[3] = biological target: T3, Taste receptor type 2 member 43 (Homo sapiens) (UniProt P59537); test: Antagonist activity at recombinant human N-terminal rat ST3 receptor-fused TAS2R43 expressed in HEK293T cells co-expressing Galpha16gust44 assessed as inhibition of aristolochic acid-induced intracellular calcium level at 100 uM by FLIPR assay
T3 sequence (whole entry): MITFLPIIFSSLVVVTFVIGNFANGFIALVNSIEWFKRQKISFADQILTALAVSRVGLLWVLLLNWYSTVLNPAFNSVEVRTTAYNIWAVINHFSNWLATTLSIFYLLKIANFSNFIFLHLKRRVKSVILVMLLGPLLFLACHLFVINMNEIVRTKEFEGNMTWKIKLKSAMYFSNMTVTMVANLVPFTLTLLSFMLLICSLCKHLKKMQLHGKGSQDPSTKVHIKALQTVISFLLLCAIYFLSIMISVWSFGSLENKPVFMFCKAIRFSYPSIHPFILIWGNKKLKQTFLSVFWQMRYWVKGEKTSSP

[4] = biological target: T4, Taste receptor type 2 member 1 (Homo sapiens) (UniProt Q9NYW7); test: Antagonist activity at recombinant human N-terminal rat ST3 receptor-fused TAS2R1 expressed in HEK293T cells co-expressing Galpha16gust44 assessed as inhibition of trans-isocohumulone-induced increase in intracellular calcium level at 100 uM by FLIPR assay
T4 sequence (whole entry): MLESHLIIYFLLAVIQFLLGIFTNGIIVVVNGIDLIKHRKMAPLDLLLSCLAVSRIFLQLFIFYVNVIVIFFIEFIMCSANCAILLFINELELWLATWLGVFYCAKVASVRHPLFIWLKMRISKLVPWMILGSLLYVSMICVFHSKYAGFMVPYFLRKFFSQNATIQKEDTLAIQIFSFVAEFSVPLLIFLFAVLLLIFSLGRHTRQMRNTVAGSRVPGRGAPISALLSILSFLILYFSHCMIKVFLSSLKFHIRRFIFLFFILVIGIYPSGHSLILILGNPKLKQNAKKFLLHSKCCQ

[5] = biological target: T5, Taste receptor type 2 member 8 (Homo sapiens) (UniProt Q9NYW2); test: Antagonist activity at recombinant human N-terminal rat ST3 receptor-fused TAS2R8 expressed in HEK293T cells co-expressing Galpha16gust44 assessed as inhibition of chloramphenicol-induced increase in intracellular calcium level at 100 uM by FLIPR assay
T5 sequence (whole entry): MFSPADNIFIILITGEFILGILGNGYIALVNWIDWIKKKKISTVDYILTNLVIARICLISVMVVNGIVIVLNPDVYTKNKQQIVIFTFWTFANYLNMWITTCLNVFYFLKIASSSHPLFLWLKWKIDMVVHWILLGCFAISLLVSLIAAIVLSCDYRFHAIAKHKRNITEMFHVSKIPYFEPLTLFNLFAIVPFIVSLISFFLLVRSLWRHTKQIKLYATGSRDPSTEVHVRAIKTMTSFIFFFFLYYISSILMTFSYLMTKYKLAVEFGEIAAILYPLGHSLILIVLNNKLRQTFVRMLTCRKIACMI

[6] = biological target: T2, Taste receptor type 2 member 13 (Homo sapiens); test: Antagonist activity at recombinant human N-terminal rat ST3 receptor-fused TAS2R13 expressed in HEK293T cells co-expressing Galpha16gust44 assessed as inhibition of denatonium benzoate-induced increase in intracellular calcium level at 100 uM by FLIPR assay
[7] = biological target: T1, Taste receptor type 2 member 14 (Homo sapiens); test: Antagonist activity at recombinant human N-terminal rat ST3 receptor-fused TAS2R14 expressed in HEK293T cells co-expressing Galpha16gust44 assessed as inhibition of aristolochic acid-induced increase in intracellular calcium level at 100 uM by FLIPR assay
[8] = biological target: T6, Taste receptor type 2 member 39 (Homo sapiens) (UniProt P59534); test: Antagonist activity at recombinant human N-terminal rat ST3 receptor-fused TAS2R39 expressed in HEK293T cells co-expressing Galpha16gust44 assessed as inhibition of epigallocatechin galiate-induced increase in intracellular calcium level at 100 uM by FLIPR assay
T6 sequence (whole entry): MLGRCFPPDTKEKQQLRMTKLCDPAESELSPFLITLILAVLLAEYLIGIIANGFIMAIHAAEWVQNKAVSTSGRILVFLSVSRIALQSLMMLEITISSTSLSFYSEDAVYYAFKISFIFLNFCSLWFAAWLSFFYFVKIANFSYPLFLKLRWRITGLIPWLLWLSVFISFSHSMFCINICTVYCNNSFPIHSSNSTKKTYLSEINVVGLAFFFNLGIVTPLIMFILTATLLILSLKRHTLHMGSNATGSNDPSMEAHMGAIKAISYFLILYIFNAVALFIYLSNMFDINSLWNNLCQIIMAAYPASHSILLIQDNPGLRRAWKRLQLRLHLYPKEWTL

SMILES | Activity [1] | Activity [2] | inhibition [3] | inhibition [4] | inhibition [5] | inhibition [6] | inhibition [7] | inhibition [8]
C/C1=C\C[C@H](O)/C(C)=C/[C@H]2OC(=O)[C@@H](C)[C@@H]2CC1 | Active | inactive | Active | inactive | inactive | inactive | inactive | inactive
C/C1=C\C[C@H](O)[C@@H](C)C[C@H]2OC(=O)[C@@H](C)[C@@H]2CC1 | Active |  | Active | inactive | inactive | inactive | inactive | inactive

— ChEMBL document CHEMBL4418912, “Methods of identifying antagonists of the hTAS2R46 bitter taste receptor” (2014)
